Assay results from US4232007A, “Oral antilipemic agents” (Taiho Pharmaceutical Company Ltd., priority 1975, dated 1980).

Columns and labels:
lipids in blood [1] = assay: Reduction of lipids in blood of rats given surfactant Triton WR-1339, oral administration; format: in vivo, rat; conditions: rats given Triton WR-1339 200 mg/kg i.v., compound 50 mg/kg oral; for Free cholesterol: normal rat 25.7 ± 3.7, rat given surfactant 114.2 ± 28.8; for β-Lipoprotein: normal rat 44.3 ± 1.3, rat given surfactant 141.7 ± 28.8; for Triglyceride: normal rat 44.7 ± 3.5, rat given surfactant 780.1 ± 354.5; for Total cholesterol: normal rat 89.9 ± 10.4, rat given surfactant 235.3 ± 41.7; for Total lipid: normal rat 220 ± 12, rat given surfactant 1033 ± 330
Method: A 100 g quantity of the methyl ester of polyglutamic acid (average molecular weight: 100,000) is dissolved in dichloroethane to a concentration of 10 wt.%. To the solution is added a mixture of 70 ml of 2 N sodium hydroxide solution, 140 ml of methanol and 140 ml of isopropanol,and the resulting mixture is stirred at room temperature for about 8 hours to effect demethylation. The product is then passed through a molecular sieve (Sephadex G-200) for the classification of molecular weight to separate a portion ranging from 80,000 to 100,000 in molecular weight (average molecular weight: 90,000). The separated portion is concentrated under reduced pressure and divided into two portions of equivalent weight. To one of the portions is added methanol and the precipitate formed is separated by filtration and dried to obtain the sodium salt of polyglutamic acid. To the other portion is added concentrated hydrochloric acid until the pH thereof reaches 4, then the solution is cooled with ice, whereby a precipitate is formed. The precipitate is separated by filtration, washed with diluted hydrochloric acid, thereafter with methanol and dried to obtain polyglutamic acid. Each powder (200 mg) of polyglutamic acid and sodium salt thereof thus obtained is mixed with 290 mg of milk sugar, 500 mg of corn starch and 10 mg of hydroxypropyl cellulose and the mixtures obtained are granulated respectively. The granules are suspended in water. Two kinds of the suspensions are orally administered to 7 rats in a dose of 50 mg/kg, respectively, to determine the reduction of lipids in blood.
The separated portion is concentrated under reduced pressure, methanol is added to the concentrate and the resulting precipitate is filtered off and dried to obtain the sodium salt of the copolymer of glutamic acid and aspartic acid. With the powder (200 mg) thus obtained are mixed 290 mg of milk sugar, 500 mg of corn starch and 10 mg of hydroxypropyl cellulose. The mixture is granulated and the granules are suspended in an isotonic sodium chloride solution.

anticoagulant activity = conditions: cited from earlier work
lipids in blood [2] = conditions: known drugs, background; cited from earlier work
plasma = assay: Recalcification test; format: biochemical, rat; conditions: 58 sec. at 0 μg
Method: A 0.5 ml quantity of 0.1 M sodium citrate is added to 4.5 ml of blood of rat to obtain plasma. […] Thereafter 0.1 ml of 0.025 M CaCl2 saline solution is added to coagulate the blood sample.

Rat = assay: Acute toxicity test; format: in vivo; conditions: for LD50: 72 hours after administration
[3] = amount 100 μg, ditto mark = No coagulation

Row | Substance | Free cholesterol (lipids in blood [1]) | β-Lipoprotein (lipids in blood [1]) | Triglyceride (lipids in blood [1]) | Total cholesterol (lipids in blood [1]) | Total lipid (lipids in blood [1]) | anticoagulant activity as a side effect (anticoagulant activity) | reducing lipids in blood (lipids in blood [2]) | Coagulation time (plasma; amount 0.1 μg) | Coagulation time (plasma; amount 0.3 μg) | Coagulation time (plasma; amount 0.5 μg) | Coagulation time (plasma; amount 1 μg) | Coagulation time (plasma; amount 10 μg) | LD50 (Rat; intravenous) | LD50 (Rat; oral) | Coagulation time (plasma; [3]) | Coagulation time (plasma; amount 500 μg, ditto mark = No coagulation) | Coagulation time (plasma; amount 1000 μg, ditto mark = No coagulation) | Coagulation time (plasma; amount 2000 μg, ditto mark = No coagulation) | toxicity compared with heparin (Rat; Table 2)
1 | sodium salt of polyglutamic acid | 40.0 ± 11.4 mg/dl of plasma | 63.4 ± 16.9 mg/dl of plasma | 92.0 ± 42.8 mg/dl of plasma | 121.8 ± 18.9 mg/dl of plasma | 393 ± 66 mg/dl of plasma |  |  |  |  |  |  |  |  |  |  |  |  |  | 
2 | heparin |  |  |  |  |  | very high anticoagulant activity | effective in reducing lipids in blood | 62 s | 145 s | 168 s | 285 s | No coagulation | 730 mg/kg | 1950 mg/kg |  |  |  |  | 
3 | polyglutamic acid | 38.8 ± 11.7 mg/dl of plasma | 61.9 ± 29.0 mg/dl of plasma | 103.3 ± 67.2 mg/dl of plasma | 118.1 ± 35.3 mg/dl of plasma | 373 ± 132 mg/dl of plasma |  |  | 55 s | 58 s | 56 s | 62 s | 58 s | 2050 mg/kg | 6000 mg/kg | 62 s | 100 s | 151 s | 250 s | much lower toxicity than heparin
4 | dextran sulfate |  |  |  |  |  | very high anticoagulant activity | effective in reducing lipids in blood | 57 s | 62 s | 61 s | 117 s | 172 s |  |  | No coagulation |  |  |  | 
